From patent US11839659B2, “Proteolysis-targeting chimeric molecules (PROTACs) that induce degradation of indoleamine 2,3-dioxygenase (IDO) protein” (Northwestern University, priority 2020, dated 2023)
Entries after “also recorded” stand apart in the source; their conditions may differ. Peptide text beside a SMILES is read from it. * marks the point of attachment. Cbz = O=C(OCc1ccccc1)*

Assays:
Assay type in all cases: cell-based
[1] = molecular target: T1, IDO1 (Homo sapiens, UniProt P14902); experiment: Western blot: effect of competitors and pathway inhibitors on IDO-PROTAC induced IDO1 degradation; settings: co-treatment with IDO-PROTAC, U87 cells where stated
T1 construct: IDO1 protein was induced in U87 cells with IFNg (50 ng/ml) for 24 hours followed by treatment with IDO-PROTAC; endogenous in cells; host or cells: U87 parental cells; GBM43 cells (IFNg-induced)

[2] = molecular target: T1, IDO1; experiment: Western blot of IFNg-induced IDO1 protein levels in U87 cells after IDO-PROTAC treatment; settings: IFNg (50 ng/ml) 24 hours, then IDO-PROTAC 24 hours
Description: FIG. 2. Screening method for PROTAC-induced degradation of IDO1 using INFg-treated U87 parental cells.
(§1) FIG. 20. Discovery of lead IDO-PROTAC to induce IDO1 degradation in cancer cells. A. Schema for screening IDO-PROTAC compounds in U87 cells. […] Percent IFNg-induced IDO1 levels (normalized to untreated samples) were calculated in U87 cells after treating with IDO-PROTAC compounds at 0, 0.1, 1, and 10 uM concentration for 24 hours. C. […] IDO1 was induced in U87 and GBM43 cells with IFNg (50 ng/ml) for 24 hours followed by treatment with IDO-PROTAC for 24 hours before protein samples were prepared for western blotting analysis. D. Percent normalized IDO1 protein levels in U87 and GBM43 cells (from panel C) after treating with lead IDO-PROTAC (NU223612) for 24 hours. E & F. Testing moderate and poor IDO-PROTAC compounds on IDO1 protein levels in U87 cells. […] Structures of IDO-PROTAC (I), mutant IDO-PROTAC (J), and parental compound (K).
FIG. 27. Representative western blots to identify a lead IDO-PROTAC in U87 cells. IDO1 protein was induced in U87 cells with IFNg (50 ng/ml) for 24 hours followed by treatment with IDO-PROTAC at 0, 0.1, 1, and 10 uM for 24 hours before protein samples were prepared for western blotting analysis of IDO1 and GAPDH.

[3] = molecular target: T1, IDO1; experiment: Western blot of IFNg-induced IDO1 protein levels in GBM43 cells after IDO-PROTAC treatment; settings: IFNg (50 ng/ml) 24 hours, then IDO-PROTAC 24 hours
Description: as §1

[4] = molecular target: T1, IDO1; experiment: Enzyme-dependent (kynurenine production) and enzyme-independent (phospho-NFkB p65) functions of IDO1 in GBM cells; settings: GBM cells (U87, GBM43)
Description: FIG. 24. […] A & B. Effect of IDO-PROTAC, mutant IDO-PROTAC, and IDO-inhibitor on kynurenine production in U87 & GBM43 cells respective cells. Cells were treated with IDO-PROTAC, mutant IDO-PROTAC, or IDO-inhibitor in the presence of INFg (50 ng/ml) for 24 hours and cell culture supernatants were collected to measure IFNg-induced kynurenine levels using a modified Erlich method. Cells cultured in the absence of IFNg serves as a control group. C. Western blotting analysis to determine the effect of IDO-PROTAC and IDO-inhibitor on IDO1 protein levels, phospho-NFkB (p65) levels, total-NFkB (p65) levels and GAPDH levels in U87 cells. IDO1 protein was induced with IFNg for 24 hours in U87 cells followed by treatment with IDO-PROTAC and IDO-inhibitor for 24 hours at multiple concentrations. D. Western blotting analysis to determine the effect of IDO-PROTAC, mutant IDO-PROTAC, and IDO-inhibitor on IDO1 protein levels, phospho-NFkB (p65) levels, total-NFkB (p65) levels and GAPDH levels in a breast cancer cell line, MDA MB 231. E. Western blotting analysis to determine the effect of IDO-PROTAC on the levels of IDO1 protein, phospho-NFkB (p65), total-NFkB (p65) and GAPDH in U87 IDO1 overexpressing (flag-tagged) cells. Cells were treated with DMSO or IDO-PROTAC (10 uM) for 24 hours prior to protein extraction. U87 parental cells serves as a control group for basal phosphorylation of NFkB. […]

T1 sequence (P14902 whole entry): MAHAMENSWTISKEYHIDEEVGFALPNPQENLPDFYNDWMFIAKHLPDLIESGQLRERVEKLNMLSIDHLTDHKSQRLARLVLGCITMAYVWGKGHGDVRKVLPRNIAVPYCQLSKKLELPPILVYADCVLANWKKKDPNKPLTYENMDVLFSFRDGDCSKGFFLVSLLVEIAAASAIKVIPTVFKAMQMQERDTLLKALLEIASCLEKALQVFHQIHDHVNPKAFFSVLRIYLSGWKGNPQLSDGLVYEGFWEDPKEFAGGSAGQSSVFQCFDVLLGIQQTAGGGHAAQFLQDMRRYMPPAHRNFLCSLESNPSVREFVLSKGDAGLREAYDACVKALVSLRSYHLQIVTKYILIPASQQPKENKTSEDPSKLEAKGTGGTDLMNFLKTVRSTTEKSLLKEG

Structure (SMILES) | Effect on NU223612 (IDO-PROTAC) induced IDO1 degradation [1] | IDO1 degradation (western blot) [2] | IDO1 degradation (western blot) [3] | Effect on enzyme-dependent and enzyme-independent functions of IDO1 [4] | Effect on NU223612 (IDO-PROTAC) induced IDO1 degradation ([1]; listed as CRBN ligand)
NS(=O)(=O)OC[C@@H]1C[C@@H](n2ccc3c(N[C@H]4CCc5ccccc54)ncnc32)C[C@@H]1O [MLN4924] | blocks IDO-PROTAC-induced IDO1 degradation |  |  |  | 
C[C@@H](C(=O)Nc1ccc(OC2CCN(C(=O)CCOCCOCCNc3cccc4c3C(=O)N(C3CCC(=O)NC3=O)C4=O)CC2)cc1)[C@H]1CC[C@@H](c2ccnc3ccc(F)cc32)CC1 (stereo partly shown) [NU223612] |  | induced IDO1 degradation | induced IDO1 degradation | inhibits both enzyme-dependent and enzyme-independent functions of IDO1 | 
Nc1cccc2c1C(=O)N(C1CCC(=O)NC1=O)C2=O (stereo not shown) [Pomalidomide] | blocks IDO-PROTAC-induced IDO1 degradation |  |  |  | blocks NU223612 induced IDO1 degradation
CC(C)C[C@@H](C=O)NC(=O)[C@H](CC(C)C)NC(=O)[C@H](CC(C)C)NC(=O)OCc1ccccc1 [MG132] (Cbz-Leu-Leu-Leu-aldehyde) | blocks NU223612 induced IDO1 degradation; also recorded: blocks IDO-PROTAC-induced IDO1 degradation |  |  |  | 
